Data as given in patent US11141403B2, “Benzimidazoles and indoles as taro inhibitors” (MERCK SHARP & DOHME CORP., priority 2015, dated 2021).
Several values for one entry are separate records, joined by “and”; a condition that tells them apart may be missing. Equal values may be shown once.

Experiments:
[1] = system: MRSA COL (MB5393); experiment: TarO Inhibitor/β-Lactam Synergy Assay; assay type: cell-based, Staphylococcus aureus; conditions: 20 hours; for IC95: Staphylococcus aureus, TarO inhibitor alone, OD600, 95% growth inhibition, read-out: MITC95 TarO inhibitor alone, Bacteria: SA_MB5393; for MITC95 TarO inhibitor + 4 μg/mL IPM; Bacteria: SA_MB5393: in combination with 4 μg/mL imipenem; for MITC95 TarO inhibitor + 4 μg/mL IPM; Bacteria: SA_MB5393 / MITC95 TarO inhibitor + 8 μg/mL DCX; Bacteria: SA_MB5393: OD600; for MITC95 TarO inhibitor + 8 μg/mL DCX; Bacteria: SA_MB5393: in combination with 8 μg/mL dicloxacillin
Protocol: The TarO inhibitor/β-lactam synergy assay was performed to measure the re-sensitization of methicillin-resistant Staphylococci bacteria (MB5393: MRSA COL) to β-lactam antibiotics by TarO inhibitors. MRSA COL is a hospital-acquired penicillinase-negative clinically isolated strain commonly used in Staphylococcus aureus studies and is fully resistant to the antimicrobial bioactivity of β-lactam antibiotics, including but not limited to imipenem and dicloxacillin. […] MRSA COL is fully refractory to β-lactam antibiotic effect at the current clinical breakpoint concentrations and as such MRSA COL is fully viable at these concentrations.
The β-lactam antibiotic concentration was fixed at the clinical breakpoint (imipenem 4 μg/ml or dicloxacillin 8 μg/ml) and the TarO inhibitors were titrated by 2 fold starting from the highest concentration of 200 μM with final DMSO concentration of 2% in the assay. 5×10^5 colony forming unit of MRSA COL in cation-adjusted Mueller Hinton broth (CAMHB) was then mixed and the assay plate was incubated for 20 hours at 37° C. without shaking. After 20 hours, the optical density at 600 nm (OD600) was read for all wells to determine relative growth of MRSA COL.

[2] = system: MRSA COL (MB 5393); experiment: In Vivo Murine Systemic Infection Model; parameters: species or system Staphylococcus aureus; conditions: for Bacteria recovered: tid, neutropenic Balb/C mice, 24 h post challenge; for Fold reduction vs. vehicle alone: kidney cfu
Protocol: The murine systemic infection model determines the therapeutic efficacy of TarO inhibitor/β-lactam combinations in vivo. Staphylococci bacteria can cause a systemic infection and establish a robust growth in the kidneys of the infected animal. MRSA COL can establish an infection even in the presence of β-lactam antibiotic due MRSA COL resistance to β-lactam antibiotics.
Female Balb/C mice were rendered neutropenic (immune suppressed) with a single 250 mg/kg intraperitoneal (ip) dose of cyclophosphamide on […]. MRSA COL (MB 5393) was grown for 16 hours in trypticase soy broth (TSB) at 37° C. and 0.5 mL of diluted culture (˜1×10^4 cfu) was administered intraperitoneal (IP). The TarO inhibitor and β-lactam antibiotic were administered alone or in combination by subcutaneous route at 2, 5 and 8 hr. post challenge (sc, tid). Twenty four hours post challenge mice were euthanized and the kidneys harvested, weighed, homogenized and plated to measure the total number of bacteria recovered as colony forming unit (CFU) remaining in compound treated groups as compared to vehicle (saline) or β-lactam antibiotic alone groups (statistical analyses was determined by one way ANOVA).

Row | Structure (SMILES) | IC95 [1] | MITC95 TarO inhibitor + 4 μg/mL IPM; Bacteria: SA_MB5393 [1] | MITC95 TarO inhibitor + 8 μg/mL DCX; Bacteria: SA_MB5393 [1] | other results
1 | CC1(C)[C@@H]2CC[C@@]1(C)[C@H](NC(=O)CCn1c(C3CCCCC3)nc3ccccc31)C2 [Example 37, 3-(2-cyclohexyl-1H-benzimidazol-1-yl)-N-[(1R,2R,4R)-1,7,7-trimethylbicyclo[2.2.1]hept-2-yl]propanamide] | > 200 µM | 1.69 µM | 12.50 µM | Bacteria recovered ([2]; Example 37 (100 mg/kg) + imipenem (5 mg/kg) sc): 2.6×10^4 cfu/g kidney; Fold reduction vs. vehicle alone ([2]; Example 37 (100 mg/kg) + imipenem (5 mg/kg)): 730 and 730.8; Bacteria recovered ([2]; Example 37 alone (100 mg/kg) sc): 1.5×10^7 cfu/g kidney; Fold reduction vs. vehicle alone ([2]; Example 37 alone (100 mg/kg)): 1.3
2 | CCN(C(=O)CCn1c(C2CCCN(c3ccccn3)C2)nc2ccccc21)C1CCCCC1 (stereo not shown) [Example 48, N-cyclohexyl-N-ethyl-3-[2-(1-pyridin-2-ylpiperidin-3-yl)-1H-benzimidazol-1-yl]propanamide] | > 200 µM | 1.56 µM | 50 µM | –
3 | CCCOC(=O)N1CC(c2nc3ccccc3n2CCC(=O)N(CC)C2CCCCC2)CCC1C (stereo not shown) [Example 49, propyl 5-(1-{3-[cyclohexyl(ethyl)amino]-3-oxopropyl}-1H-benzimidazol-2-yl)-2-methylpiperidine-1-carboxylate] | 100 µM | 0.78 µM | 6.25 µM | –
4 | CCN(C(=O)CCn1c(C2CCC(C)N(c3nccc(OC)n3)C2)nc2ccccc21)C1CCCCC1 (stereo not shown) [Example 50, N-cyclohexyl-N-ethyl-3-{2-[1-(4-methoxypyrimidin-2-yl)-6-methylpiperidin-3-yl]-1H-benzimidazol-1-yl}propanamide] | 100 µM | 0.20 µM | 1.56 µM | –
5 | CCCOC(=O)N1CCCC(c2nc3ccccc3n2CCC(=O)N(CC)C2CCCCC2)C1 (stereo not shown) [Example 51, Propyl 3-(1-{3-[cyclohexyl(ethyl)amino]-3-oxopropyl}-1H-benzimidazol-2-yl)piperidine-1-carboxylate] | 100 µM | 0.39 µM | 3.13 µM | –
6 | CCN(C(=O)CCn1c(C2CCCN(c3nccc(C)n3)C2)nc2ccccc21)C1CCCCC1 (stereo not shown) [Example 52, N-cyclohexyl-N-ethyl-3-{2-[1-(4-methylpyrimidin-2-yl)piperidin-3-yl]-1H-benzimidazol-1-yl}propanamide] | 100 µM | 1.56 µM | 6.25 µM | –
7 | CCN(C(=O)CCn1c(C2CCCN(C(=O)OC(C)C)C2)nc2ccccc21)C1CCCCC1 (stereo not shown) [Example 53, 1-methylethyl 3-(1-{3-[cyclohexyl(ethyl)amino]-3-oxopropyl}-1H-benzimidazol-2-yl)piperidine-1-carboxylate] | 100 µM | 1.56 µM | 6.25 µM | –
8 | CCN(C(=O)CCn1c(N2CCC(F)(F)CC2)nc2ccccc21)C1CCCCC1 [Example 55, N-cyclohexyl-3-(2-(4,4-difluoropiperidin-1-yl)-1H-benzo[d]imidazol-1-yl)-N-ethylpropanamide] | > 200 µM | 1.37 µM | 7.81 µM | –
9 | CCN(C(=O)CCn1c(N2CCC(C(F)F)CC2)nc2ccccc21)C1CCCCC1 [Example 56, N-cyclohexyl-3-{2-[4-(difluoromethyl)piperidin-1-yl]-1H-benzimidazol-1-yl}-N-ethylpropanamide] | > 200 µM | 1.17 µM | 4.69 µM | –
10 | CCN(C(=O)CCn1c(N2CCC(C)CC2)nc2ccccc21)C1CCCCC1 [Example 57, N-cyclohexyl-N-ethyl-3-[2-(4-methylpiperidin-1-yl)-1H-benzimidazol-1-yl]propanamide] | > 200 µM | 1.30 µM | 26 µM | –
11 | CCN(C(=O)CCn1c(N2CCC(C(C)(C)C)CC2)nc2ccccc21)C1CCCCC1 [Example 58, 3-[2-(4-tert-butylpiperidin-1-yl)-1H-benzimidazol-1-yl]-N-cyclohexyl-N-ethylpropanamide] | > 200 µM | 0.02 µM | 0.13 µM | –
12 | CCN(C(=O)CCn1c(N2CCC[C@H](NC(=O)OC(C)(C)C)C2)nc2ccccc21)C1CCCCC1 [Example 59, tert-butyl [(3S)-1-(1-{3-[cyclohexyl(ethyl)amino]-3-oxopropyl}-1H-benzimidazol-2-yl)piperidin-3-yl]carbamate] | > 200 µM | 50 µM | 150 µM | –
13 | CCN(C(=O)CCn1c(CN2CCC(C(C)(C)C)CC2)nc2ccccc21)C1CCCCC1 [Example 60, 3-{2-[(4-tert-butylpiperidin-1-yl)methyl]-1H-benzimidazol-1-yl}-N-cyclohexyl-N-ethylpropanamide] | > 200 µM | 0.78 µM | 6.25 µM | –
14 | CCC1CCN(Cc2nc3cc(C)ccc3n2CCC(=O)N(CC)C2CCCCC2)CC1 [Example 61, N-cyclohexyl-N-ethyl-3-{2-[(4-ethylpiperidin-1-yl)methyl]-5-methyl-1H-benzimidazol-1-yl}propanamide] | 50 µM | 6.25 µM | 25 µM | –
15 | CCC1CCN(Cc2nc3ccccc3n2CCC(=O)N(CC)C2CCCCC2)CC1 [Example 62, N-cyclohexyl-N-ethyl-3-{2-[(4-ethylpiperidin-1-yl)methyl]-1H-benzimidazol-1-yl}propanamide] | > 200 µM | 6.25 µM | 25 µM | –
16 | CC1CCN(C(=O)CCn2c(C3CCCCC3)nc3ccccc32)CC1 [Example 63, 3-(2-cyclohexyl-1H-benzo[d]imidazol-1-yl)-1-(4-methylpiperidin-1-yl)propan-1-one] | > 200 µM | 18.75 µM | – | –
17 | CCN(C(=O)CCn1c(C2CCCCC2)cc2ccccc21)C1CCCCC1 [Example 64, N-cyclohexyl-3-(2-cyclohexyl-1H-indol-1-yl)-N-ethylpropanamide] | > 200 µM | 6.20 µM | – | –
18 | C[C@@H](O)[C@H]1C(=O)N2C(C(=O)O)=C(SCCN=CN)C[C@H]12 [imipenem, reference compound] | – | – | – | Bacteria recovered ([2]; Imipenem alone (5 mg/kg) sc): 1.0 × 10^6 cfu/g kidney; Fold reduction vs. vehicle alone ([2]; Imipenem alone (5 mg/kg)): 19
